{
  "source": "paper PMC9355812",
  "about": "(The Oncologist, 2022)",
  "key": {"[1]": {"settings": "paclitaxel 100 mg/m^2; patients receiving PIs (nelfinavir, indinavir, other multiple protease inhibitors); Kaposi Sarcoma and HIV; cited from earlier work"}, "[2]": {"assay": "Paclitaxel plasma pharmacokinetics, cycle 1 day 1", "type": "in vivo, human"}, "[3]": {"assay": "Adverse events, NCI CTCAE version 4.0, worst grade in any cycle", "type": "in vivo, human", "settings": "2 patients, first vorinostat dose level (400 mg orally days 1-5 of each cycle)"}, "[4]": {"settings": "Ritonavir cohort, cycle 1, paclitaxel 175 mg/m^2 IV with carboplatin"}},
  "data": [
    {"molecule": "CC(=O)O[C@H]1C(=O)[C@@]2(C)[C@H]([C@H](OC(=O)c3ccccc3)[C@]3(O)C[C@H](OC(=O)[C@H](O)[C@@H](NC(=O)c4ccccc4)c4ccccc4)C(C)=C1C3(C)C)[C@]1(OC(C)=O)CO[C@@H]1C[C@@H]2O", "note": "[Paclitaxel]", "values": [
      {"measurement": "Paclitaxel exposure as measured by AUC", "setting": "[1]", "result": "5.5 ± 2.2", "unit": "µM·h"},
      {"measurement": "differences in Cmax or AUCinf between the 2 cohorts", "setting": "[2]; 6 patients, ritonavir vs non-ritonavir", "result": "no significant differences"},
      {"measurement": "Cl", "setting": "[2]; [4]", "result": 4.1, "unit": "L/hr/m^2"},
      {"measurement": "Time > C 0.5 µM", "setting": "[2]; [4]", "result": 22.7, "unit": "h"},
      {"measurement": "duration spent at a paclitaxel concentration >0.05 µM", "setting": "[2]; non-ritonavir cohort", "result": 23.8, "unit": "h"},
      {"measurement": "pharmacokinetic interaction with ritonavir", "setting": "[2]; ritonavir at a boosting dose for ART in combination with paclitaxel", "result": "no evidence for pharmacokinetic interaction"},
      {"measurement": "duration spent at a paclitaxel concentration >0.05 µM", "setting": "[2]; ritonavir cohort", "result": 22.7, "unit": "h"}
    ]},
    {"molecule": "O=C(CCCCCCC(=O)Nc1ccccc1)NO", "note": "[vorinostat]", "values": [
      {"measurement": "toxicity of PCb combination with vorinostat", "setting": "[3]", "result": "without prohibitive toxicity"}
    ]}
  ]
}
